Laboratory results reported in patent EP0457381B1, “Delta 2-cephem sulphones” (PHARMACIA S.p.A., priority 1990, dated 1991).

Molecular target: T1, human leukocyte elastase (HLE) (Homo sapiens, UniProt P08246)
T1 construct: purchased Calbiochem
T1 sequence (P08246 30-267): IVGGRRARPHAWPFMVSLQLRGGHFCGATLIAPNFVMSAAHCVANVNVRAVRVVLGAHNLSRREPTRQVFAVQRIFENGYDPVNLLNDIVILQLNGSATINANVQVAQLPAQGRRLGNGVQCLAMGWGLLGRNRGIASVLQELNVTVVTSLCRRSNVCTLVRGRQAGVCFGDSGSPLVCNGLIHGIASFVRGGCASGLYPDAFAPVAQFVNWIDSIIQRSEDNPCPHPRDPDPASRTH
Test: Kinetic parameters of HLE inhibition, fluorogenic substrate N-methoxysuccinyl-alanyl-alanyl-prolyl-valyl-7-amido-4-methylcoumarin
Format: biochemical
Conditions: HLE (Calbiochem), 37°C, phosphate buffer pH 7.4, I= 0.15, 1% DMSO and 1% MeCN; for Ki: apparent dissociation constant of HLE-inhibitor complex at steady state; for k₅/Ki: rate of formation of HLE-inhibitor complex
Excerpt: The inhibitory activity on human leukocyte elastase (HLE) of Δ-cephem sulphones of the invention, designated as Compound 4 and Compound 5 in Table 1 above, and of the Δ³-cephem sulphone Merck S.&D. L-659,286, which, to our best knowledge, is the most advanced β-lactam product under study as an HLE-inhibitor (Ann. Rev. Resp. Dis. 1988, 137:204; Journal of Cellular Biochemistry 1989, 39:47), was compared as described below.
The reference compound 7α-methoxy-3-(2-methyl-5-oxo-6-hydroxy-2,5-dihydro-1,2,4-triazin-3-yl)thiomethyl-3-cephem-4-pyrrolidine-carboxamide-1,1-dioxide (Merck's code-name; L-659,286) was synthesized in our laboratories from 7-amino-3-desacetoxy-cephalosporanic acid. Its structural identity and purity (≥95%) was confirmed by spectral and analytical data.
The kinetic parameters of HLE (Calbiochem) inhibition were determined at 37°C in phosphate buffer (pH 7.4, I= 0.15) with 1% DMSO and 1% MeCN as solubilizing vehicles, monitoring fluorometrically (λex= 383 nm; λem = 455 nm) the release of 7-amino-4-methylcoumarin from the fluorogenic substrate N-methoxysuccinyl-alanyl-alanyl-prolyl-valyl-7-amido-4-methylcoumarin. Best fit to the progress curves was obtained by a two-step mechanism (mechanism B in J.F. Morrison, TIBS 1982, 7:102; see also J.F. Morrison and C.T. Walsh, Advances in Enzymology, vol. 61, A. Meister editor, John Wiley & Sons 1988): [drawing 9] Product release versus time was analysed using the following function: [P] = vs t + (vi -vs (1-e)^-kt )/k [formula] wherein [P] = product concentration, vs = steady state rate, vi = initial rate of product release and k = k6 + (k5 /Ki )([I])/(1 + [S]/Km + [I]/Ki); Ki = k4 /k3 [formula] wherein [I] and [S] = inhibitor and substrate concentration, and Km = Michaelis constant for the enzymesubstrate pair (independently determined under the same experimental conditions). At steady state, inhibition is fully determined by the steady-state inhibition constant Ki* (steady state): Ki * = Ki (k6)/(k5 + k6) [formula]

COC(=O)C1(/C=C\C(=O)OC(C)(C)C)C(C)=CS(=O)(=O)[C@@H]2[C@@H](Cl)C(=O)N21 (stereo partly drawn) [Compound 4, Methyl 7α-chloro-4-[(Z)-2-tert-butoxycarbonylethenyl]-3-methyl-2-cephem-4-carboxylate-1,1-dioxide]
Ki: 64 nM | k₅/Ki: k₅/Ki = 7,200 M⁻¹s⁻¹

COC(=O)C1(C=CC(=O)OC(C)(C)C)C(C)=C(/C=C/C(=O)OC(C)(C)C)S(=O)(=O)[C@@H]2[C@@H](Cl)C(=O)N21 (stereo partly drawn) [Compound 5, Methyl-7α-Chloro-2,4-bis[2-tert-butoxycarbonylethenyl]-3-methyl-2-cephem-4-carboxylate-1,1-dioxide]
Ki: 5.2 nM

CO[C@H]1C(=O)N2C(C(=O)N3CCCC3)=C(CSc3nc(=O)c(O)nn3C)CS(=O)(=O)[C@H]12 [Reference compound, 7α-methoxy-3-(2-methyl-5-oxo-6-hydroxy-2,5-dihydro-1,2,4-triazin-3-yl)thiomethyl-3-cephem-4-pyrrolidine-carboxamide-1,1-dioxide, reference compound]
Ki: 140 nM | k₅/Ki: k₅/Ki = 8,000 M⁻¹s⁻¹
